These results are taken from patent US9675593B2, “Anti-fibrotic pyridinones” (InterMune, Inc., priority 2012, dated 2017).

This test deals with TGF-b induced Endothelin-1 (ET-1) production. The test can be described thus: ET-1 assay: inhibitory effect on TGF-b induced endothelin-1 production. It is filed as cell-based. The conditions noted are these: Homo sapiens, Fibroblast; fibroblasts, stimulant (TGFb, serum, LPA etc), ET-1 by ELISA. Here is the method: Assay of Inhibitory Effect on TGF-b induced Endothelin-1 Production
Fibroblasts (primary human lung and dermal, HFL-1, 3T3 etc) are seeded in 96-well plates at ˜15000 cells/well and serum starved for 0-48 hours. After media exchange, compounds serially diluted in DMSO are added to the cells. After a brief incubation of ˜30 min, stimulants (TGFb, serum, LPA etc) are added followed by further incubation for 16-48 hours. Media is then harvested and stored frozen in plate format for later endothelin-1 (ET-1) determination by ELISA. Toxicity measurements are made using the ATPlite kit (Perkin-Elmer). ET-1 is quantified using an ELISA kit (R&D Systems). The amount of ET-1 produced in the assay wells are back-calculated using the ELISA standard. The ability of a compound to inhibit ET-1 production is typically analyzed by fitting dose-response curves to a 4-parameter logistic function to obtain an EC50 value. A measure of cytotoxicity (CC50) is likewise reported from the same experiment using the ATPlite data.
(ELISA stands for enzyme-linked immunosorbent assay.)
One may read the EC50 as the midpoint of the concentration-response curve. For `O=c1ccc(-c2ccnnc2)cn1-c1ccc(OC(F)(F)F)cc1` [Compound 347], the EC50 lay within 50 to 200 µM.

With `Cc1cc(-c2cnn(C)c2)cn(-c2ccc(OC(F)(F)F)cc2)c1=O` [Compound 352], the 50% effective concentration (EC50) was in the range of 50 to 200 µM. Turning to `O=C(Nc1cc(=O)n(-c2ccc(OC(F)(F)F)cc2)cc1-c1ccc(F)cc1)Oc1ccccc1` [Compound 113], the EC50 was above 200 µM.
